Measurements: patent US5096929A, “2-amino-1,2,3,4-tetrahydronaphthalene derivatives with cardiovascular activity, process for their preparation and pharmaceutical compositions containing them” (Chiesi Farmaceutici S.p.A., priority 1989, dated 1992)
Structures can show the parent of a compound that is named as a salt. Where two headings read alike, the source gives them in different places.

Columns and labels:
[1] = tested on: arterial rat hind quarter; experiment: Rat perfused hind quarter; vasodilating action; settings: for Emax: Rattus norvegicus, 100% = complete reduction
Experimental: Rat perfused hind quarter; vasodilating action
The vasodilating effect of CHF 1255 has been evaluated in the arterial rat hind quarter perfused with Krebs-Henseleit solution at constant flow.
The increase of arterial resistance was induced by K^+ -enriched solution (40 mM), norepinephrine (5×10^-6 M) and serotonin (5×10^-7 M).
Papaverine and prazosin, powerful α-blocker vasodilator, were used as reference compounds.
ED40 =dose (moles) decreasing of 40% the contraction induced by the agonist. 100% was considered as the complete recduction of contraction.

[2] = Evaluation of acute toxicities, mouse; settings: in vivo, male, read-out: Acute toxicity mean LD50
Text: (§1) Evaluation of acute toxicities

isolated rat left atrium = experiment: Isolated rat left atrium: inotropic activity (force); settings: for EC50 / Emax: Rattus norvegicus; for EC50: read-out: EC50, left atrium (force)
Experimental: (§2) The inotropic and chronotropic effects of compound (Ia) of the invention were determined in vitro using, respectively, isolated rat left atrium and right atrium.
Left atrium:inotrocic activity
The atria were subjected to a 0.5 g starting tension and suspended in a bath containing aerated Krebs-Henseleit j solution with 95% O2 and […] kept at 32.C. The preparation was stimulated at a 4 Hz frequency with pulses during 5 msec each. The contraction strength was detected by an isometric transducer and recorded on a microndynamometer.
(§3) The results were expressed as the percentage of the response obtained with a maximal dose ([…]) of isoproterenol which was determined at the beginning of the test. In Table 1 the potency (EC50=effective concentration inducing the 50% of the maximal effect) and the relative intrinsic activity (expressed as α and compared with that of isoproterenol, taken=1) are shown.
(§4) The effects of the compounds were evaluated in rat isolated atria according to the previously described method.
(§5) Table 3. Potency (EC50) and intrinsic activity (α;isoproterenol=1) on the isolated rat left atrium (Inotropic activity) and right atrium (chronotropic activity).

[3] = tested on: histaminergic H2 receptors; experiment: Mechanism of cardiostimulant action: histaminergic H2 receptors; settings: mechanism study
Text: (§6) The mechanism of the inotropic activity of CHF 1255 has been studied in a series of other tests.
(§7) Studies have excluded the possibility that the cardiostimulant action of the compound is due to catecholamines release, to the stimulation of alpha-adrenergic cardiac receptors, or to the stimulation of histaminergic H1 and H2 receptors.

[4] = tested on: beta-2 adrenergic receptors; experiment: Isolated guinea-pig trachea: interactions with beta-2 adrenergic receptors (relaxation of carbachol contraction); settings: inferred from selective beta-1 agonism
rabbit isolated aorta = experiment: Rabbit isolated aorta, inhibition of norepinephrine dose-response curve
catecholamines release = experiment: Mechanism of cardiostimulant action: catecholamines release; settings: mechanism study
Text: as §6, §7

[5] = tested on: beta-1 adrenergic receptors; experiment: Isolated rat left atrium: interactions with beta-adrenergic receptors (atenolol antagonism)
Experimental: Isolated rat left atrium: interactions with beta-adrenercic receptors.
The affinity for beta-1 adrenergic receptors has been evaluated in the rat left atrium as previously described.
In this test, dose-response curves of CHF 1255 were recorded in the absence and in the presence of increasing concentrations (10^-8 to 3×10^-7 M) of the selective beta-1 blocker atenolol.

[6] = Evaluation of acute toxicities, rat; settings: in vivo, male/female, read-out: Acute toxicity mean LD50
Text: as §1

[7] = tested on: histaminergic H1 receptors; experiment: Mechanism of cardiostimulant action: histaminergic H1 receptors; settings: mechanism study
Text: as §6, §7

[8] = tested on: isolated rat right atrium; experiment: Isolated rat right atrium: chronotropic activity (frequency); settings: for EC50 / Emax: Rattus norvegicus; for EC50: read-out: EC50, right atrium (frequency)
Experimental: as §2
Right atrium:chronotrpic activity
The preparation was prepared in the same way and under the same conditions as described above, but was not subjected to electric stimulation. Frequency was monitored by a cardiotachograph.
as §3, §4, §5

[9] = target: T1, beta-2 adrenergic receptors (Cavia porcellus, UniProt Q8K4Z4); experiment: Isolated guinea-pig trachea: interactions with beta-2 adrenergic receptors (relaxation of carbachol contraction); settings: for EC50: carbachol 3×10^-7 M
T1 construct: Trachea strips were isolated and prepared according to the method described by Emerson J and Machay D; from tissue; host or cells: guinea-pig isolated trachea strips
Experimental: The selectivity of this interaction has been studied by evaluating the effects on beta-2 adrenergic receptors, in the guinea-pig isolated trachea, using CHF 1026 as reference compound.
Isolated guinea-pig trachea: interactions with beta-2 adrenergic receptors
Trachea strips were isolated and prepared according to the method described by Emerson J and Machay D in J Pharm Pharmacol 1979, 31, 798, immersed in Krebs-Henseleit solution (37° C., 95% O2 +5% CO2), subjected to an initial tension of 1 g and contracted with carbachol (3×10^-7 M).
Dose-response curves of CHF 1255 and CHF 1026 were recorded in the absence and in the presence of 10^-6 M propranolol, used as antagonist and added to the bath before the stimulation with carbachol.
The obtained results are shown in Table 2, expressed as potency (EC50 calculated from t he dose--response curve) and intrinsic activity (α, isoproternol=1).

[10] = tested on: alpha-adrenergic cardiac receptors; experiment: Mechanism of cardiostimulant action: alpha-adrenergic cardiac receptors; settings: mechanism study
Text: as §6, §7

phosphodiesterase = experiment: Mechanism of cardiostimulant action: phosphodiesterase inhibition; settings: mechanism study
Text: as §6, §7

T1 sequence (Q8K4Z4 whole entry): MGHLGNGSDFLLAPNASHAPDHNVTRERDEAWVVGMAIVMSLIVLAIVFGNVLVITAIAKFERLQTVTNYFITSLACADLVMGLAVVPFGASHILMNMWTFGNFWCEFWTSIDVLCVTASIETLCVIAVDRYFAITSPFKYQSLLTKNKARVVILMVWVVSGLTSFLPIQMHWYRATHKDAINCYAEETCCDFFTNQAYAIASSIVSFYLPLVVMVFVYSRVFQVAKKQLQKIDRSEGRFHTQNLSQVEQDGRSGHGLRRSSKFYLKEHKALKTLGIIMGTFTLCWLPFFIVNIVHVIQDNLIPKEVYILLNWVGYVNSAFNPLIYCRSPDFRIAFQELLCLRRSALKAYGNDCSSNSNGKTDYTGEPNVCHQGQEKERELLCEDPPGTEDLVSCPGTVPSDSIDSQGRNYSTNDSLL

COc1ccc2c(c1OC)CCC(N[C@@H](C)[C@H](O)c1ccc(O)cc1)C2 (relative stereo) [CHF 1255, Erythro-5,6-Dimethoxy-2-[2-(4-hydroxyphenyl)-2-hydroxy-1-mehylethylamino]1,2,3,4-tetrahydronaphthalene hydrochloride]
Activity against contraction by the different agents (in words) ([1]; K+, norepinephrine, serotonin): particularly active on the norepinephrine induced contraction
Emax ([1]; K+ 40 mM, read-out: α (efficacy), K+ induced contraction): 46%
Emax ([1]; norepinephrine 5×10^-6 M, read-out: α (efficacy), norepinephrine induced contraction): 94%
Emax ([1]; serotonin 5×10^-7 M, read-out: α (efficacy), 5-HT induced contraction): 60%
ED40, K+ induced contraction ([1]; dose decreasing contraction by 40%, K+ 40 mM): 1.5e-06 mol
ED40, norepinephrine induced contraction ([1]; dose decreasing contraction by 40%, norepinephrine 5×10^-6 M): 1.2e-08 mol
ED40, 5-HT induced contraction ([1]; dose decreasing contraction by 40%, serotonin 5×10^-7 M): 6.5e-07 mol
LD50 ([2]; iv, i.v.): 65 mg/kg
LD50 ([2]; po, os): 325 mg/kg
EC50 (isolated rat left atrium; Table 3, inotropic activity, rat left atrium): 3.01 µM
EC50 (isolated rat left atrium; Table I, isolated rat left atrium, 4 Hz stimulation, confidence limits in parentheses): 3 µM
Emax (isolated rat left atrium; Table 3, isoproterenol=1, read-out: α, left atrium (force)): 60%
Emax (isolated rat left atrium; Table I, isoproterenol taken=1, confidence limits in parentheses, read-out: α (intrinsic activity), left atrium (force)): 60%
Cardiostimulating potency compared with dopamine and CHF 1026 (isolated rat left atrium; Table 1 comparison): potency comparable to those of dopamine and of CHF 1026
Intrinsic activity / type of agonism (in words) (isolated rat left atrium; beta-1 adrenergic receptors): partial agonist of beta-1 adrenergic receptors
Potency ratio vs amrinone (times higher) (isolated rat left atrium; increase of contraction force, 50% of maximum effect, higher than amrinone): about 10 times
Potency ratio vs xamoterol (times lower) (isolated rat left atrium; increase of contraction force, 50% of maximum effect, lower than xamoterol): about 300 times
Contribution of histaminergic H2 receptor stimulation to cardiostimulant action [3]: excluded
Tachycardic and arrhythmogenic activity due to stimulation of beta-2 receptors [4]: no tachycardic and arrhythmogenic activity
α-blocking activity in rabbit isolated aorta (rabbit isolated aorta): competitive inhibition of the noprepinephrine dose--response curve
Contribution of catecholamines release to cardiostimulant action (catecholamines release): excluded
Shift of dose-response curve by beta-1 blocker atenolol ([5]; atenolol 10^-8 to 3×10^-7 M): shifted the dose-responsive curve of CHF 1255 to the right in a dose-dependent way
Receptor mediating the inotropic activity ([5]; mechanism study): due to the stimulation of beta-1 adrenergic receptors
LD50 ([6]; iv, i.v.): 59 mg/kg
LD50 ([6]; po, os): 1270 mg/kg
Contribution of histaminergic H1 receptor stimulation to cardiostimulant action [7]: excluded
EC50 ([8]; Table 3, chronotropic activity, rat right atrium): 1.32 µM
EC50 ([8]; Table I, isolated rat right atrium, confidence limits in parentheses): 1.3 µM
Emax ([8]; Table 3, isoproterenol=1, read-out: α, right atrium (frequency)): 160%
Emax ([8]; Table I, isoproterenol taken=1, confidence limits in parentheses, read-out: α (intrinsic activity), right atrium (frequency)): 55%
Chronotropic efficacy compared with xamoterol ([8]; Table 3 comparison): remarkably lower than that of xamoterol
Effect of propranolol on dose-response curve ([9]; 10^-6 M propranolol): remain unchanged
Emax ([9]; guinea pig, isoproterenol=1, without propranolol, read-out: α in absence of propranolol): 94%
Stimulation of beta-2 adrenergic receptors (in words) ([9]; guinea-pig trachea): does not stimulate beta-2 adrenergic receptors
EC50 ([9]; guinea-pig trachea, with 10^-6 M propranolol, read-out: EC50 in presence of propranolol): 4.6 µM
EC50 ([9]; guinea-pig trachea, without propranolol, read-out: EC50 in absence of propranolol): 3.4 µM
α in presence of propranolol ([9]; isoproterenol=1, with 10^-6 M propranolol): 0.72
Contribution of alpha-adrenergic cardiac receptor stimulation to cardiostimulant action [10]: excluded
Contribution of phosphodiesterase inhibition to cardiostimulant activity (phosphodiesterase): not due to phosphodiesterase inhibition
